Measured values reported in ChEMBL document CHEMBL3593180, “Lipocarbazole, an efficient lipid peroxidation inhibitor anchored in the membrane” (Bioorg Med Chem, 2015).

Assay: Antioxidant activity in soybean large unilamellar vesicles assessed as inhibition of AAPH-induced lipid peroxidation compound added prior to AAPH induction measured after 90 mins by UV-visible absorption spectrometric analysis
Assay type: physicochemical

Point of comparison: `O=c1c(O)c(-c2ccc(O)c(O)c2)oc2cc(O)cc(O)c12` [QUERCETIN], IC50 200 nM. Against it:
- CCCCCCCC/C=C/CCCCCCCc1c(C)c(O)cc2c1[nH]c1ccccc12 — within 1.5-fold, 160 nM
- Cc1cc2[nH]c3ccccc3c2cc1O — 5-fold higher, 1000 nM
- VITAMIN E — 4-fold higher, 800 nM
